ChEMBL document CHEMBL3580659, “One-pot multicomponent synthesis of indole incorporated thiazolylcoumarins and their antibacterial, anticancer and DNA cleavage studies” (2015)

What was measured:
Type in all cases: functional
[1] = test system: SNB-19; experiment: Cytotoxicity against human SNB19 cells after 48 hrs by sulforhodamine B assay; settings: SNB-19, 48 h
[2] = test system: SR; experiment: Cytotoxicity against human SR cells after 48 hrs by sulforhodamine B assay
[3] = test system: UO-31; experiment: Cytotoxicity against human UO31 cells after 48 hrs by sulforhodamine B assay; settings: UO-31, 48 h
[4] = test system: SNB-75; experiment: Cytotoxicity against human SNB75 cells assessed as cell growth level at 100 nM after 48 hrs by sulforhodamine B assay
[5] = test system: RPMI-8226; experiment: Cytotoxicity against human RPMI8226 cells assessed as cell growth level at 100 uM after 48 hrs by sulforhodamine B assay
[6] = test system: T47D; experiment: Cytotoxicity against human T47D cells after 48 hrs by sulforhodamine B assay
[7] = test system: SF-539; experiment: Cytotoxicity against human SF539 cells assessed as cell growth level at 10 uM after 48 hrs by sulforhodamine B assay
[8] = test system: HT-29; experiment: Cytotoxicity against human HT-29 cells assessed as cell growth level at 1 uM after 48 hrs by sulforhodamine B assay
[9] = test system: SF-268; experiment: Cytotoxicity against human SF268 cells after 48 hrs by sulforhodamine B assay; settings: SF-268, 48 h
[10] = test system: CCRF-CEM; experiment: Cytotoxicity against human CCRF-CEM cells after 48 hrs by sulforhodamine B assay
[11] = test system: COLO 205; experiment: Cytotoxicity against human COLO205 cells assessed as cell growth level at 10 uM after 48 hrs by sulforhodamine B assay
[12] = test system: A498; experiment: Cytotoxicity against human A498 cells assessed as cell growth level at 10 nM after 48 hrs by sulforhodamine B assay
[13] = test system: OVCAR-4; experiment: Cytotoxicity against human OVCAR4 cells assessed as cell growth level at 10 nM after 48 hrs by sulforhodamine B assay
[14] = test system: HOP-62; experiment: Cytotoxicity against human HOP62 cells assessed as cell growth level at 100 nM after 48 hrs by sulforhodamine B assay
[15] = test system: IGROV-1; experiment: Cytotoxicity against human IGROV1 cells assessed as cell growth level at 10 nM after 48 hrs by sulforhodamine B assay
[16] = test system: HT-29; experiment: Cytotoxicity against human HT-29 cells assessed as cell growth level at 100 nM after 48 hrs by sulforhodamine B assay
[17] = test system: RPMI-8226; experiment: Cytotoxicity against human RPMI8226 cells after 48 hrs by sulforhodamine B assay; settings: RPMI-8226, 48 h
[18] = test system: A549; experiment: Cytotoxicity against human A549/ATCC cells assessed as cell growth level at 100 nM after 48 hrs by sulforhodamine B assay
[19] = test system: SK-OV-3; experiment: Cytotoxicity against human SKOV3 cells assessed as cell growth level at 10 uM after 48 hrs by sulforhodamine B assay
[20] = test system: UACC-257; experiment: Cytotoxicity against human UACC257 cells assessed as cell growth level at 10 nM after 48 hrs by sulforhodamine B assay
[21] = test system: DU-145; experiment: Cytotoxicity against human DU145 cells assessed as cell growth level at 10 nM after 48 hrs by sulforhodamine B assay
[22] = test system: OVCAR-3; experiment: Cytotoxicity against human OVCAR3 cells assessed as cell growth level at 100 nM after 48 hrs by sulforhodamine B assay
[23] = test system: NCI-H522; experiment: Cytotoxicity against human NCI-H522 cells after 48 hrs by sulforhodamine B assay; settings: NCI-H522, 48 h
[24] = test system: MDA-MB-231; experiment: Cytotoxicity against human MDA-MB-231/ATCC cells assessed as cell growth level at 100 nM after 48 hrs by sulforhodamine B assay
[25] = test system: MCF7; experiment: Cytotoxicity against human MCF7 cells assessed as cell growth level at 1 uM after 48 hrs by sulforhodamine B assay
[26] = test system: SW-620; experiment: Cytotoxicity against human SW620 cells assessed as cell growth level at 100 nM after 48 hrs by sulforhodamine B assay
[27] = test system: MDA-MB-231; experiment: Cytotoxicity against human MDA-MB-231/ATCC cells assessed as cell growth level at 1 uM after 48 hrs by sulforhodamine B assay
[28] = test system: MOLT-4; experiment: Cytotoxicity against human MOLT4 cells assessed as cell growth level at 10 uM after 48 hrs by sulforhodamine B assay
[29] = test system: CAKI-1; experiment: Cytotoxicity against human CAKI-1 cells assessed as cell growth level at 1 uM after 48 hrs by sulforhodamine B assay
[30] = test system: UACC-62; experiment: Cytotoxicity against human UACC62 cells after 48 hrs by sulforhodamine B assay; settings: UACC-62, 48 h
[31] = test system: M14; experiment: Cytotoxicity against human M14 cells after 48 hrs by sulforhodamine B assay; settings: M14, 48 h
[32] = test system: OVCAR-8; experiment: Cytotoxicity against human OVCAR8 cells assessed as cell growth level at 100 nM after 48 hrs by sulforhodamine B assay
[33] = test system: UO-31; experiment: Cytotoxicity against human UO31 cells assessed as cell growth level at 100 uM after 48 hrs by sulforhodamine B assay
[34] = test system: MDA-MB-231; experiment: Cytotoxicity against human MDA-MB-231/ATCC cells assessed as cell growth level at 10 nM after 48 hrs by sulforhodamine B assay
[35] = read-out: LC50 (the source's name)
[36] = read-out: pLC50 (the source's name) (converted)

## O=c1oc2ccccc2cc1-c1csc(N/N=C/c2c[nH]c3ccccc23)n1
[1]; read-out: GI50
  GI50: 3.39 µM
[1]; [35]
  CC50: > 100 µM
[1]; read-out: TGI
  TGI: 62.1 µM
[1]; read-out: pGI50 (converted)
  GI50: 3.39 µM
[1]; [36]
  CC50: > 100 µM
[1]; read-out: pTGI (converted)
  TGI: 61.7 µM
[2]; read-out: GI50
  GI50: 1.83 µM
[2]; read-out: LC50
  LC50: > 100 µM
[2]; read-out: TGI
  TGI: 4.92 µM
[2]; read-out: pGI50 (converted)
  GI50: 1.82 µM
[2]; read-out: pLC50 (converted)
  LC50: > 100 µM
[2]; read-out: pTGI (converted)
  TGI: 4.9 µM
[3]; read-out: GI50
  GI50: 0.76 µM
[3]; [35]
  CC50: 5.47 µM
[3]; read-out: TGI
  TGI: 2.23 µM
[3]; read-out: pGI50 (converted)
  GI50: 0.759 µM
[3]; [36]
  CC50: 5.5 µM
[3]; read-out: pTGI (converted)
  TGI: 2.24 µM
[4]
  Activity: 90%
[5]
  Activity: -41%
[6]; read-out: GI50
  GI50: 1.98 µM
[6]; [35]
  CC50: > 100 µM
[6]; read-out: TGI
  TGI: 5.9 µM
[6]; read-out: pGI50 (converted)
  GI50: 2 µM
[6]; [36]
  CC50: > 100 µM
[6]; read-out: pTGI (converted)
  TGI: 5.89 µM
[7]
  Activity: 0.41%
[8]
  Activity: 89%
[9]; read-out: GI50
  GI50: 1.93 µM
[9]; [35]
  CC50: > 100 µM
[9]; read-out: TGI
  TGI: 8.77 µM
[9]; read-out: pGI50 (converted)
  GI50: 1.95 µM
[9]; [36]
  CC50: > 100 µM
[9]; read-out: pTGI (converted)
  TGI: 8.71 µM
[10]; read-out: GI50
  GI50: 0.33 µM
[10]; read-out: LC50
  LC50: > 100 µM
[10]; read-out: TGI
  TGI: 1.78 µM
[10]; read-out: pGI50 (converted)
  GI50: 0.339 µM
[10]; read-out: pLC50 (converted)
  LC50: > 100 µM
[10]; read-out: pTGI (converted)
  TGI: 1.78 µM
[11]
  Activity: 28.15%
[12]
  Activity: 95%
[13]
  Activity: 90%
[14]
  Activity: 110%
[15]
  Activity: 108%
[16]
  Activity: 105%
[17]; read-out: GI50
  GI50: 0.9 µM
[17]; [35]
  CC50: > 100 µM
[17]; read-out: TGI
  TGI: 4.79 µM
[17]; read-out: pGI50 (converted)
  GI50: 0.912 µM
[17]; [36]
  CC50: > 100 µM
[17]; read-out: pTGI (converted)
  TGI: 4.79 µM
[18]
  Activity: 92%
[19]
  Activity: 62.24%
[20]
  Activity: 96%
[21]
  Activity: 95%
[22]
  Activity: 90%
[23]; read-out: GI50
  GI50: 1.03 µM
[23]; read-out: LC50
  LC50 (50% lethal concentration): 4.96 µM
[23]; read-out: TGI
  TGI: 2.26 µM
[23]; read-out: pGI50 (converted)
  GI50: 1.02 µM
[23]; read-out: pLC50 (converted)
  LC50 (50% lethal concentration): 5.01 µM
[23]; read-out: pTGI (converted)
  TGI: 2.24 µM
[24]
  Activity: 97%
[25]
  Activity: 69%
[26]
  Activity: 95%
[27]
  Activity: 92%
[28]
  Activity: -32.32%
[29]
  Activity: 88%
[30]; read-out: GI50
  GI50: 1.6 µM
[30]; [35]
  CC50: 7.11 µM
[30]; read-out: TGI
  TGI: 3.38 µM
[30]; read-out: pGI50 (converted)
  GI50: 1.58 µM
[30]; [36]
  CC50: 7.08 µM
[30]; read-out: pTGI (converted)
  TGI: 3.39 µM
[31]; read-out: GI50
  GI50: 1.95 µM
[31]; [35]
  CC50: 9.13 µM
[31]; read-out: TGI
  TGI: 4.22 µM
[31]; read-out: pGI50 (converted)
  GI50: 1.95 µM
[31]; [36]
  CC50: 9.12 µM
[31]; read-out: pTGI (converted)
  TGI: 4.17 µM
[32]
  Activity: 107%
[33]
  Activity: -52%
[34]
  Activity: 97%
